Laboratory results as given in patent publication US10966993B2, “Pharmaceutical composition comprising a sulfonylurea drug and preparation method thereof” (JIANGSU AOSAIKANG PHARMACEUTICAL CO., LTD., priority 2016, dated 2021).

Assays:
MCAO rats [1] = experiment: Area and swelling degree of cerebral infarction in rat MCAO models; type: in vivo, Sprague-Dawley (SD) rat; conditions: n=8, glibenclamide 10 μg/kg ip at ischemia 4 h + 200 ng/h sc for 44 hours, after ischemia for 48 hours
Protocol: (§1) 7.2 Experiment Animals: Male Sprague-Dawley (SD) rat, clean grade, weighing at 200˜230 g. The temperature of animal feeding room was maintained at 20˜24° C., the humidity was maintained at 30˜70%; a cycle of lighting on 12 hours/lighting off 12 hours (06:00 AM on, 18:00 PM off) every day was employed. During the experiment, the animals were feed separately, and had free access to water and food.
The test drugs in group GB was formulated as follows: glibenclamide was dissolved in a little DMSO (dimethyl sulfoxide), the resulting solution was diluted to a DMSO concentration of 5 vol % with physiological saline, and the pH of the solution was adjusted to 8˜8.5 with NaOH. […]
Rats were rested for about 1 week before the experiment started. […] The blood flow in the brain was monitored with a laser Doppler (Model moorVMS-LDF2, Manufacturer moor) respectively pre-operation, post-operation and immediately after reperfusion, and the molding in which the ratio of the postoperative blood flow to the preoperative blood flow was less than 30% was regarded as a qualified molding. […]
After ischemia for 48 hours, the brain was taken and put into a brain slicer to slice coronal sections through the brain (2 mm each piece), stained at dark with 1% TTC for 15 min at 37° C., and analyzed for the area of infarction after taking a photograph. […]

MCAO rats [2] = experiment: Neurobehavioral scoring (Longa) in rat MCAO models; type: in vivo, Sprague-Dawley (SD) rat; conditions: for Neurobehavioral score (Longa Scoring, 0-4): n=8, glibenclamide 10 μg/kg ip at ischemia 4 h + 200 ng/h sc for 44 hours
Protocol: as §1
The test drugs in group GB was formulated as follows: glibenclamide was dissolved in a little DMSO (dimethyl sulfoxide), the resulting solution was diluted to a DMSO concentration of 5 vol % with physiological saline, and the pH of the solution was adjusted to 8˜8.5 with NaOH. By means of the above process, solutions with glibenclamide concentration of 200 μg/ml and 10 μg/ml were respectively formulated.
The test drugs in group H-GB was formulated as follows: Taking the lyophilized product of Example 13, into which was added an appropriate amount of physiological saline and respectively formulated into a solution with a glibenclamide concentration of […].
Rats were rested for about 1 week before the experiment started. On the day of the experiment, the surgical tools were sterilized by autoclaving. The rats were anesthetized by intraperitoneally injecting chloral hydrate (330 mg/kg). The common carotid artery and external carotid artery of the rats were separated, and a sterilized MCAO monofilament was used to insert into the internal carotid artery through the opening of the external carotid artery to a depth of about 18 mm, until the head of the monofilament reached the starting part of the middle cerebral artery, the opening of the external carotid artery was ligatured to fix the monofilament. […] The blood flow in the brain was monitored with a laser Doppler (Model moorVMS-LDF2, Manufacturer moor) respectively pre-operation, post-operation and immediately after reperfusion, and the molding in which the ratio of the postoperative blood flow to the preoperative blood flow was less than 30% was regarded as a qualified molding. […]

COc1ccc(Cl)cc1C(=O)NCCc1ccc(S(=O)(=O)NC(=O)NC2CCCCC2)cc1 [glibenclamide, 5-chloro-N-(4-[N-(cyclohexylcarbamoyl)aminosulfonyl]phenethyl)-2-methoxybenzamide]
Swelling degree (area of infarction side hemisphere / non-infarction side hemisphere) (MCAO rats [1]): 1.31 ± 0.04 | neurobehavioral scores compared with the control (in words) (MCAO rats [2]; at 24 h, 48 h): declines | Neurobehavioral score (Longa Scoring, 0-4) (MCAO rats [2]; scored at ischemia 24 h): 1.75 ± 0.25 | Neurobehavioral score (Longa Scoring, 0-4) (MCAO rats [2]; scored at ischemia 48 h): 2.00 ± 0.19
